Measured values: US5691351A, “Bis-(Heteroarylmethoxyphenyl)cycloalkyl carboxylates as inhibitors of leukotriene biosynthesis” (Abbott Laboratories, priority 1996, dated 1997)
Counter-ions that a name gives are not always drawn. Like-named read-outs stand apart in the source and are kept apart here.

Key:
[1] = tested on: Calcium Ionophore Stimulated Leukotriene Formation in Human Polymorphonuclear Leukocytes; experiment: Calcium ionophore-induced LTB4 formation in human polymorphonuclear leukocytes (Lipoxygenase Inhibition Determination); format: cell-based; conditions: human PMNL, 15 min preincubation, calcium ionophore 8.3 μM, 10 min at 37° C., LTB4 by enzyme-linked immunoassay or HPLC, read-out: Inhibitory Potencies Against Calcium Ionophore Stimulated Leukotriene Formation in Human Polymorphonuclear Leukocytes, IC50
Protocol: Leukotriene biosynthesis inhibitory activity of representative compounds of the present invention was evaluated in an assay involving calcium ionophore-induced LTB4 expressed in human polymorphornuclear leukocytes (PMNL). Human PMNL isolated from heparinized (20 USP units/mL) venous blood (25 mL) obtained from healthy volunteers was layered over an equal volume of Ficoll-Hypaque Mono-Poly Resolving Medium (ICN Flow, Costa Mesa, Calif.) and centrifugated at 400×g for 40 min at 20° C. The PMNL was collected, erythrocytes lysed and washed 2× and suspended at 1.0×10^7 cells/mL in Earle's balanced salt solution with 17 mM Earle's HEPES. […] Incubations were stopped with the addition of two volumes of ice-cold methanol followed by centrifuging the cell suspensions at 4° C. for 10 min at 450×g. The mount of LTB4 in the methanol extract was analyzed by enzyme-linked immunoassay or by HPLC analysis.

leukotriene synthesis = conditions: Bioorganic and Medicinal Chemistry Letters, 1: 645-648 (1991); cited from earlier work

| SMILES | IC50 [1] [nM] | also measured |
| --- | --- | --- |
| O=C(O)C1CCC(c2ccc(OCc3ccc4ccccc4n3)cc2)(c2ccc(OCc3ccc4ccccc4n3)cc2)CC1 [Example 2, 4,4-bis-(4-(2-quinolylmethoxy)phenyl)cyclohexane carboxylic acid sodium salt] |  | IC50 ([1]; sodium salt): 47 nM |
| O=C(O)C1CCC(c2ccc(OCc3ccc4ccccc4n3)cc2)(c2ccc(OCc3ccc4ccccc4n3)cc2)CC1 [Example 1, 4,4-bis-(4(2-quinolylmethoxy)phenyl)cyclohexane carboxylic acid] | 59 |  |
| O=C(O)CSC(CCCc1ccc(Cl)cc1)c1ccc(OCc2ccc3ccccc3n2)cc1 [L-674,636, {[4-(4-chlorophenyl)-1-[4-(2-quinolylmethoxy)phenyl]-butyl]thio}acetic acid] |  | leukotriene synthesis inhibitor (in words) (leukotriene synthesis): potent and orally active leukotriene synthesis inhibitor |
| CC(=NOC1CCC(c2ccc(OCc3ccc4ccccc4n3)cc2)(c2ccc(OCc3ccc4ccccc4n3)cc2)CC1)C(=O)O [Example 5, sodium salt] | 37 |  |
